# Patent US20260242419A1, “A CYCLIC PEPTIDE FOR TRAPPING INTERLEUKIN-1 BETA” (Merck Sharp & Dohme LLC, priority 2023, published 2026)
# Starred links: 1 amine or outer side, 2 acyl side, 3 side chain; linkers in the order of their positions; H or OH if unused. Non-standard residues stand in square brackets, D forms with d. Residues, ends and D or L forms follow the SMILES beside them. Phe(4-(trans-4-COOH-cHex)) = N[C@@H](Cc1ccc([C@H]2CC[C@H](C(=O)O)CC2)cc1)C(=O)O; Phe(4-(cis-4-COOH-cHex)) = N[C@@H](Cc1ccc([C@H]2CC[C@@H](C(=O)O)CC2)cc1)C(=O)O; dPro(4R-(4-pyridylmethyl)) = O=C(O)[C@H]1C[C@@H](Cc2ccncc2)CN1; Trp(βS-Me,4-F) = C[C@@H](c1c[nH]c2cccc(F)c12)[C@H](N)C(=O)O; Bip(4'-COOH) = N[C@@H](Cc1ccc(-c2ccc(C(=O)O)cc2)cc1)C(=O)O; Ala(1-bicyclo(1.1.1)pentyl) = N[C@@H](CC12CC(C1)C2)C(=O)O; dPro(4R-Bzl(4-F)) = O=C(O)[C@H]1C[C@@H](Cc2ccc(F)cc2)CN1; Ala(pyrimidin-5-yl) = N[C@@H](Cc1cncnc1)C(=O)O; Phe(4-COOH) = N[C@@H](Cc1ccc(C(=O)O)cc1)C(=O)O; Ala(2-pyrazinyl) = N[C@@H](Cc1cnccn1)C(=O)O; Pro(cis-4-F) = O=C(O)[C@@H]1C[C@H](F)CN1; X23 = O=C([C@H](Cc1ncccn1)N[*:1])[*:2]; X47 = O=C([C@H](Cc1cccnn1)N[*:1])[*:2]; 4Pal = N[C@@H](Cc1ccncc1)C(=O)O; d(αMeS) = C[C@@](N)(CO)C(=O)O; αMeS = C[C@](N)(CO)C(=O)O; Orn = NCCC[C@H](N)C(=O)O; Api = NC1(C(=O)O)CCNCC1; Dab = NCC[C@H](N)C(=O)O; Aib = CC(C)(N)C(=O)O
# Target: T1, IL-1β (Homo sapiens, UniProt P01584)
# T1 construct: purchased BioLegend 579404
# Assay: IL-6 assay in MRC5 cells: inhibition of IL-1β induced IL-6 secretion (AlphaLISA)
# Format: cell-based
# Settings: inhibition of IL-1β induced IL-6 secretion in MRC5 cells; read-out: MRC5 IC50
# In short: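 Compound was pre-incubated 1 h at ambient temperature with recombinant human IL-1β at 2λ EC80 before adding human lung fibroblast MRC5 cells (3000/well) in EMEM with 0.025% BSA. After overnight culture at 37 °C, 5% CO2, secreted IL-6 in conditioned medium was measured by AlphaLISA; IC50 from 4-parameter logistic fits.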
# T1 sequence (P01584 117-269): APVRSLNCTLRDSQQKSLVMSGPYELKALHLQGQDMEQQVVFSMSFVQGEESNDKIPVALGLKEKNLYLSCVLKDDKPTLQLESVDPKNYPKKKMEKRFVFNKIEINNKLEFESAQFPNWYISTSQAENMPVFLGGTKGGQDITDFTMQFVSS
row,SMILES,IC50 [nM]
1,"C[C@@H](c1c[nH]c2cccc(F)c12)[C@@H]1NC(=O)[C@@H]2C[C@H](F)CN2C(=O)CNC(=O)[C@H](Cc2ccc(C(=O)O)cc2)NC(=O)[C@H](Cc2ccncc2)NC(=O)[C@H](Cc2ccc(-c3ccc(C(=O)O)cc3)cc2)NC(=O)[C@H]2C[C@@H](Cc3ccc(F)cc3)CN2C(=O)CNC(=O)[C@H](CCN)NC(=O)[C@H](CCC(N)=O)NC(=O)[C@H](Cc2cnccn2)NC(=O)C(C)(C)NC(=O)[C@H](Cc2c[nH]c3ccccc23)NC(=O)[C@H](CCC(=O)O)NC(=O)C(C)(C)NC1=O [Example 101] (cyclo([4Pal][Phe(4-COOH)]G[Pro(cis-4-F)][Trp(βS-Me,4-F)][Aib]EW[Aib][Ala(2-pyrazinyl)]Q[Dab]G[dPro(4R-Bzl(4-F))][Bip(4'-COOH)]))",0.021
2,"C[C@@H](c1c[nH]c2cccc(F)c12)[C@@H]1NC(=O)[C@@H]2C[C@H](F)CN2C(=O)CNC(=O)[C@H](Cc2ccc(C(=O)O)cc2)NC(=O)[C@H](Cc2ccncc2)NC(=O)[C@H](Cc2ccc(-c3ccc(C(=O)O)cc3)cc2)NC(=O)[C@H]2C[C@@H](Cc3ccc(F)cc3)CN2C(=O)CNC(=O)[C@H](CCN)NC(=O)[C@H](CCC(N)=O)NC(=O)[C@H](Cc2cccnn2)NC(=O)C(C)(C)NC(=O)[C@H](Cc2c[nH]c3ccccc23)NC(=O)[C@H](CCC(=O)O)NC(=O)C(C)(C)NC1=O [Example 102] (cyclo([Bip(4'-COOH)][4Pal][Phe(4-COOH)]G[Pro(cis-4-F)][Trp(βS-Me,4-F)][Aib]EW[Aib][X47]Q[Dab]G[dPro(4R-Bzl(4-F))]))",0.021
3,"C[C@@H](c1c[nH]c2cccc(F)c12)[C@@H]1NC(=O)[C@@H]2C[C@H](F)CN2C(=O)CNC(=O)[C@H](Cc2ccc(C(=O)O)cc2)NC(=O)[C@H](CC23CC(C2)C3)NC(=O)[C@H](Cc2ccc([C@H]3CC[C@@H](C(=O)O)CC3)cc2)NC(=O)[C@H]2C[C@@H](Cc3ccc(F)cc3)CN2C(=O)CNC(=O)[C@H](CCN)NC(=O)[C@H](CCC(N)=O)NC(=O)[C@H](CO)NC(=O)C2(CCNCC2)NC(=O)[C@H](Cc2c[nH]c3ccccc23)NC(=O)[C@H](CCC(=O)O)NC(=O)C(C)(C)NC1=O [Example 105] (cyclo([Phe(4-(cis-4-COOH-cHex))][Ala(1-bicyclo(1.1.1)pentyl)][Phe(4-COOH)]G[Pro(cis-4-F)][Trp(βS-Me,4-F)][Aib]EW[Api]SQ[Dab]G[dPro(4R-Bzl(4-F))]))",0.083
4,"C[C@@H](c1c[nH]c2cccc(F)c12)[C@@H]1NC(=O)[C@@H]2C[C@H](F)CN2C(=O)CNC(=O)[C@H](Cc2ccc(C(=O)O)cc2)NC(=O)[C@H](CC23CC(C2)C3)NC(=O)[C@H](Cc2ccc([C@H]3CC[C@@H](C(=O)O)CC3)cc2)NC(=O)[C@H]2C[C@@H](Cc3ccc(F)cc3)CN2C(=O)CNC(=O)[C@H](CCN)NC(=O)[C@H](CCC(N)=O)NC(=O)[C@H](CO)NC(=O)C(C)(C)NC(=O)[C@H](Cc2c[nH]c3ccccc23)NC(=O)[C@H](CO)NC(=O)C(C)(C)NC1=O [Example 106] (cyclo([Phe(4-(cis-4-COOH-cHex))][Ala(1-bicyclo(1.1.1)pentyl)][Phe(4-COOH)]G[Pro(cis-4-F)][Trp(βS-Me,4-F)][Aib]SW[Aib]SQ[Dab]G[dPro(4R-Bzl(4-F))]))",0.031
5,"C[C@@H](c1c[nH]c2cccc(F)c12)[C@@H]1NC(=O)[C@@H]2C[C@H](F)CN2C(=O)CNC(=O)[C@H](Cc2ccc(C(=O)O)cc2)NC(=O)[C@H](CC23CC(C2)C3)NC(=O)[C@H](Cc2ccc([C@H]3CC[C@@H](C(=O)O)CC3)cc2)NC(=O)[C@H]2C[C@@H](Cc3ccc(F)cc3)CN2C(=O)CNC(=O)[C@H](CCN)NC(=O)[C@H](CCC(N)=O)NC(=O)[C@H](CO)NC(=O)C(C)(C)NC(=O)[C@H](Cc2c[nH]c3ccccc23)NC(=O)[C@H](CCC(=O)O)NC(=O)[C@](C)(CO)NC1=O [Example 107] (cyclo([Phe(4-(cis-4-COOH-cHex))][Ala(1-bicyclo(1.1.1)pentyl)][Phe(4-COOH)]G[Pro(cis-4-F)][Trp(βS-Me,4-F)][αMeS]EW[Aib]SQ[Dab]G[dPro(4R-Bzl(4-F))]))",0.063
6,"C[C@@H](c1c[nH]c2cccc(F)c12)[C@@H]1NC(=O)[C@@H]2C[C@H](F)CN2C(=O)CNC(=O)[C@H](Cc2ccc(C(=O)O)cc2)NC(=O)[C@H](Cc2ccncc2)NC(=O)[C@H](Cc2ccc(-c3ccc(C(=O)O)cc3)cc2)NC(=O)[C@H]2C[C@@H](Cc3ccncc3)CN2C(=O)CNC(=O)[C@H](CCCN)NC(=O)[C@H](CCC(N)=O)NC(=O)[C@H](Cc2cncnc2)NC(=O)C(C)(C)NC(=O)[C@H](Cc2c[nH]c3ccccc23)NC(=O)[C@H](CO)NC(=O)C(C)(C)NC1=O [Example 108] (cyclo([Bip(4'-COOH)][4Pal][Phe(4-COOH)]G[Pro(cis-4-F)][Trp(βS-Me,4-F)][Aib]SW[Aib][Ala(pyrimidin-5-yl)]Q[Orn]G[dPro(4R-(4-pyridylmethyl))]))",0.024
7,"C[C@@H](c1c[nH]c2cccc(F)c12)[C@@H]1NC(=O)[C@@H]2C[C@H](F)CN2C(=O)CNC(=O)[C@H](Cc2ccc(C(=O)O)cc2)NC(=O)[C@H](CC23CC(C2)C3)NC(=O)[C@H](Cc2ccc(-c3ccc(C(=O)O)cc3)cc2)NC(=O)[C@H]2C[C@@H](Cc3ccncc3)CN2C(=O)CNC(=O)[C@H](CCCN)NC(=O)[C@H](CCC(N)=O)NC(=O)[C@H](Cc2cncnc2)NC(=O)C(C)(C)NC(=O)[C@H](Cc2c[nH]c3ccccc23)NC(=O)[C@H](CO)NC(=O)C(C)(C)NC1=O [Example 109] (cyclo([Bip(4'-COOH)][Ala(1-bicyclo(1.1.1)pentyl)][Phe(4-COOH)]G[Pro(cis-4-F)][Trp(βS-Me,4-F)][Aib]SW[Aib][Ala(pyrimidin-5-yl)]Q[Orn]G[dPro(4R-(4-pyridylmethyl))]))",0.036
8,"C[C@@H](c1c[nH]c2cccc(F)c12)[C@@H]1NC(=O)[C@@H]2C[C@H](F)CN2C(=O)CNC(=O)[C@H](Cc2ccc(C(=O)O)cc2)NC(=O)[C@H](CC23CC(C2)C3)NC(=O)[C@H](Cc2ccc(-c3ccc(C(=O)O)cc3)cc2)NC(=O)[C@H]2C[C@@H](Cc3ccc(F)cc3)CN2C(=O)CNC(=O)[C@H](CCN)NC(=O)[C@H](CCC(N)=O)NC(=O)[C@H](CCCN)NC(=O)C(C)(C)NC(=O)[C@H](Cc2c[nH]c3ccccc23)NC(=O)[C@H](CO)NC(=O)C(C)(C)NC1=O [Example 110] (cyclo([Bip(4'-COOH)][Ala(1-bicyclo(1.1.1)pentyl)][Phe(4-COOH)]G[Pro(cis-4-F)][Trp(βS-Me,4-F)][Aib]SW[Aib][Orn]Q[Dab]G[dPro(4R-Bzl(4-F))]))",0.038
9,"C[C@@H](c1c[nH]c2cccc(F)c12)[C@@H]1NC(=O)[C@@H]2C[C@H](F)CN2C(=O)CNC(=O)[C@H](Cc2ccc(C(=O)O)cc2)NC(=O)[C@H](Cc2ccncc2)NC(=O)[C@H](Cc2ccc(-c3ccc(C(=O)O)cc3)cc2)NC(=O)[C@H]2C[C@@H](Cc3ccncc3)CN2C(=O)CNC(=O)[C@H](CCN)NC(=O)[C@H](CCC(N)=O)NC(=O)[C@H](Cc2cncnc2)NC(=O)[C@@](C)(CO)NC(=O)[C@H](Cc2c[nH]c3ccccc23)NC(=O)[C@H](CO)NC(=O)C(C)(C)NC1=O [Example 111] (cyclo([Bip(4'-COOH)][4Pal][Phe(4-COOH)]G[Pro(cis-4-F)][Trp(βS-Me,4-F)][Aib]SW[d(αMeS)][Ala(pyrimidin-5-yl)]Q[Dab]G[dPro(4R-(4-pyridylmethyl))]))",0.019
10,"C[C@@H](c1c[nH]c2cccc(F)c12)[C@@H]1NC(=O)[C@@H]2C[C@H](F)CN2C(=O)CNC(=O)[C@H](Cc2ccc(C(=O)O)cc2)NC(=O)[C@H](CC23CC(C2)C3)NC(=O)[C@H](Cc2ccc(-c3ccc(C(=O)O)cc3)cc2)NC(=O)[C@H]2C[C@@H](Cc3ccncc3)CN2C(=O)CNC(=O)[C@H](CCN)NC(=O)[C@H](CCC(N)=O)NC(=O)[C@H](Cc2cncnc2)NC(=O)[C@@](C)(CO)NC(=O)[C@H](Cc2c[nH]c3ccccc23)NC(=O)[C@H](CO)NC(=O)C(C)(C)NC1=O [Example 112] (cyclo([Bip(4'-COOH)][Ala(1-bicyclo(1.1.1)pentyl)][Phe(4-COOH)]G[Pro(cis-4-F)][Trp(βS-Me,4-F)][Aib]SW[d(αMeS)][Ala(pyrimidin-5-yl)]Q[Dab]G[dPro(4R-(4-pyridylmethyl))]))",0.018
11,"C[C@@H](c1c[nH]c2cccc(F)c12)[C@@H]1NC(=O)[C@@H]2C[C@H](F)CN2C(=O)CNC(=O)[C@H](Cc2ccc(C(=O)O)cc2)NC(=O)[C@H](Cc2ccncc2)NC(=O)[C@H](Cc2ccc(-c3ccc(C(=O)O)cc3)cc2)NC(=O)[C@H]2C[C@@H](Cc3ccc(F)cc3)CN2C(=O)CNC(=O)[C@H](CCN)NC(=O)[C@H](CCC(N)=O)NC(=O)[C@H](Cc2ncccn2)NC(=O)C(C)(C)NC(=O)[C@H](Cc2c[nH]c3ccccc23)NC(=O)[C@H](CCC(=O)O)NC(=O)C(C)(C)NC1=O [Example 113] (cyclo([Bip(4'-COOH)][4Pal][Phe(4-COOH)]G[Pro(cis-4-F)][Trp(βS-Me,4-F)][Aib]EW[Aib][X23]Q[Dab]G[dPro(4R-Bzl(4-F))]))",0.018
12,"C[C@@H](c1c[nH]c2cccc(F)c12)[C@@H]1NC(=O)[C@@H]2C[C@H](F)CN2C(=O)CNC(=O)[C@H](Cc2ccc(C(=O)O)cc2)NC(=O)[C@H](Cc2ccncc2)NC(=O)[C@H](Cc2ccc([C@H]3CC[C@H](C(=O)O)CC3)cc2)NC(=O)[C@H]2C[C@@H](Cc3ccc(F)cc3)CN2C(=O)CNC(=O)[C@H](CCN)NC(=O)[C@H](CCC(N)=O)NC(=O)[C@H](Cc2cncnc2)NC(=O)C(C)(C)NC(=O)[C@H](Cc2c[nH]c3ccccc23)NC(=O)[C@H](CCC(=O)O)NC(=O)C(C)(C)NC1=O [Example 114] (cyclo([Phe(4-(trans-4-COOH-cHex))][4Pal][Phe(4-COOH)]G[Pro(cis-4-F)][Trp(βS-Me,4-F)][Aib]EW[Aib][Ala(pyrimidin-5-yl)]Q[Dab]G[dPro(4R-Bzl(4-F))]))",0.035
